# Assay results from publication PMC12609579, “Acute Myeloid Leukemia: A Key Role of DGKα and DGKζ in Cell Viability” (Cells, 2025).
# Read-outs that look alike come from different tables or passages of the source.
# What was measured:
# THP-1 cells [1] = assay: alamarBlue cell viability assay, THP-1; format: cell-based; conditions: Homo sapiens
# Protocol: (§1) The alamarBlue assay was performed to assess cell viability in presence of chemical inhibitors. A total of 50,000 cells per well were seeded in a 96-wells plate in a volume of 100 μL of complete medium together with 10 μL of 10× concentrated inhibitor solution and then incubated for either 24 or 72 h. Each experimental condition was performed in technical quadruplicates, using cells treated with equal amounts of DMSO vehicle as control and medium alone as background. After incubation, alamarBlue was added to each well at a final concentration of 0.15 mg/mL. The fluorescence of the samples was measured 24 h later using a Spark 10 M Multimode Plate Reader (Tecan, Switzerland) with excitation and emission wavelengths of 535 nm and 590 nm, respectively. For dose–response curve fitting, fluorescence values were normalized according to the following formula:Viability (%) = [(sample mean fluorescence)/(DMSO control mean fluorescence)] ∗ 100
# (§2) Data are the results of at least five independent experiments analyzed with GraphPad Prism 10 as [inhibitor] vs. normalized response curve (variable slope, after manual outlier removal).
# K562 cells = assay: alamarBlue cell viability assay, K562; format: cell-based, human
# Protocol: as §1, §2
# [2] = test system: Peripheral blood lymphocytes (PBLs); assay: alamarBlue cell viability assay, PBLs from healthy donors; format: cell-based, human; conditions: for IC50: Homo sapiens, Lymphocyte, PBLs from healthy donors
# Protocol: These four cell lines were employed in this study as in vitro models of AML, cell line identity was verified through a Cell Line Authentication Test conducted by Eurofins Genomics (Ebersberg, Germany) or by the internal university service. The resulting markers matched 100% with those reported in the ATCC database. […] L. Manzoli (Bologna, Italy), is reported as K562-related, differing from K526 by a single marker. Cells were cultured in RPMI-1640 medium (ThermoFisher Scientific, Waltham, MA, USA) supplemented with 10% heat-inactivated fetal bovine serum (FBS) and 1% penicillin-streptomycin, following the handling protocols provided by ATCC (Manassas, VA, USA). Additionally, healthy donor blood samples were provided by the UPO biobank under approved Ethical Committee authorization (Comitato Etico Interaziendale A.O.U. Maggiore della Carità 865/CE-CE206/2022 date 24 October 2022) and with informed consent for research use. Peripheral blood mononuclear cells were isolated by density gradient centrifugation using Ficoll-Paque PLUS (GE 14 Healthcare, Chicago, IL, USA), washed, and resuspended at a concentration of 2 × 10^6 cells/mL in RPMI-1640 medium containing 10% heat-inactivated FBS. Peripheral blood lymphocytes (PBLs) were selected by the treatment with 1 μg/mL anti-CD3 (clone OKT3) and anti-CD28 (clone CD28.2) human antibodies for 72 h. […]
# The alamarBlue assay was performed to assess cell viability in presence of chemical inhibitors. […] The fluorescence of the samples was measured 24 h later using a Spark 10 M Multimode Plate Reader (Tecan, Switzerland) with excitation and emission wavelengths of 535 nm and 590 nm, respectively. For dose–response curve fitting, fluorescence values were normalized according to the following formula:Viability (%) = [(sample mean fluorescence)/(DMSO control mean fluorescence)] ∗ 100
# Data are the results of at least five independent experiments analyzed with GraphPad Prism 10 as [inhibitor] vs. normalized response curve (variable slope, after manual outlier removal). […]
# HL-60 cells = assay: Annexin V-FITC/7AAD apoptosis/necrosis flow cytometry, HL-60; format: cell-based, human; conditions: HL-60, 24 h
# Protocol: (§3) To determine the type of cell death, apoptotic and necrotic cells were detected by flow cytometry using the Apoptosis Detection Kit Annexin V-FITC (Invitrogen, Carlsbad, CA, USA). For each sample, 500,000 cells, pretreated for 24 h, were stained according to manufacturer’s instructions, using 7-aminoactinomycin D (7AAD) instead of propidium iodide. Samples were analyzed on a BD FACS Symphony A5 flow cytometer (Franklin Lakes, NJ, USA) using BD FACSDiva 9.1 software. Data were gated based on FSC-A vs. FSC-H to exclude cell doublets and FSC-A vs. SSC-A to exclude debris. Different populations were identified as: live (Annexin V− and 7AAD−), necrotic (Annexin− and 7AAD+), early apoptotic (Annexin V+ and 7AAD−) and late apoptotic (Annexin+ and 7AAD+). Data are shown as mean ± SD of at least three independent experiments analyzed by GraphPad Prism 10 (control vs. [inhibitor]).
# HEL cells = assay: Annexin V-FITC/7AAD apoptosis/necrosis flow cytometry, HEL; format: cell-based, human; conditions: 24 h
# Protocol: as §3
# THP-1 cells [3] = assay: IPA canonical pathway analysis of differentially abundant proteins; format: cell-based, human; conditions: THP-1, 24 h; ritanserin 50 µM, BAY 2965501 75 µM
# Source text: A Venn diagram was created to depict the overlap of differentially abundant proteins shared between the two treatments. These proteins, along with their gene symbols and log2FC values, were then used as input for IPA Core Analysis. The following filters were applied: human species and reference tissues/cells (hematopoietic progenitor cells, macrophages, monocytes, peripheral blood monocytes, and THP1 leukemic cells). The resulting Ingenuity Canonical Pathways were downloaded using standard filters and further refined to consider only those with a |Z-score| > 1. For ritanserin vs. DMSO, the top 15 most significant pathways were represented in a bar plot, while for BAY 2965501 vs. DMSO, only three significant pathways were identified and plotted.
# Kasumi-1 = test system: Kasumi-1; design: method as in PMID 37392305; conditions: read-out: IC50 (cytotoxic effects), cited from earlier work
# [4] = target: serotonin 5-HT2C receptor; design: method as in PMID 2860558; conditions: cited from earlier work
# [5] = concentration close to IC50, representative plot
smiles,measurement,setting,value
Cc1nc2sccn2c(=O)c1CCN1CCC(=C(c2ccc(F)cc2)c2ccc(F)cc2)CC1 [ritanserin],IC50,"THP-1 cells [1]; THP-1, 24 h, THP-1, 24 h treatment then alamarBlue 24 h",37 ± 1.4 µM
same,IC50,"THP-1 cells [1]; THP-1, THP-1, 72 h treatment then alamarBlue 24 h",32 ± 1.5 µM
same,IC50,"K562 cells; Homo sapiens, K562, 24 h, K562, 24 h treatment then alamarBlue 24 h",70.4 ± 2.2 µM
same,IC50,"K562 cells; Homo sapiens, K562, K562, 72 h treatment then alamarBlue 24 h",42.5 ± 1.8 µM
same,IC50,"K562 cells; K562, 24 h treatment then alamarBlue 24 h",~70 µM
same,IC50,[2]; 24 h,42.9 ± 1.3 µM
same,IC50,[2]; 72 h,32.5 ± 1.9 µM
same,cell death of IL-2 stimulated proliferating PBLs,"[2]; untransformed PBLs, 50 μM",complete cell death
same,Early apoptotic (Annexin V+ 7AAD-),HL-60 cells; [5],3.3%
same,Late apoptotic (Annexin+ 7AAD+),HL-60 cells; [5],62.9%
same,Live cells (Annexin V- 7AAD-),HL-60 cells; [5],33.8%
same,Necrotic (Annexin- 7AAD+),HL-60 cells; [5],0%
same,modality of cell death,HL-60 cells; concentration near IC50,late apoptosis
same,Early apoptotic (Annexin V+ 7AAD-),HEL cells; [5],12.2%
same,Late apoptotic (Annexin+ 7AAD+),HEL cells; [5],2.3%
same,Live cells (Annexin V- 7AAD-),HEL cells; [5],82.5%
same,Necrotic (Annexin- 7AAD+),HEL cells; [5],2.9%
same,modality of cell death,HEL cells; concentration near IC50,early apoptosis
same,number of pathways affected / significantly downmodulated,THP-1 cells [3],more than 500
same,IC50,"Kasumi-1; Kasumi-1, 24 h",51 µM
same,IC50,"Kasumi-1; Kasumi-1, 72 h",30 µM
same,Ki,[4],0.00071 µM
